In this experiment the target is HPK1 (Homo sapiens (Human), UniProt Q92918). In words: HPK1 Kinase Binding Assay. The method in brief: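 Active HPK1 (added as 4 nM solution) was combined with compound (3-fold, 11-point series) and tracer 222 (18 nM) plus Eu-anti-GST antibody (4 nM) in 50 mM HEPES pH 7.5 with MgCl2 and DTT. After 1 h at 25 °C plates were read. Ki values were derived.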

Some results are limits rather than exact numbers.

Sequence of HPK1 (Q92918 1-346): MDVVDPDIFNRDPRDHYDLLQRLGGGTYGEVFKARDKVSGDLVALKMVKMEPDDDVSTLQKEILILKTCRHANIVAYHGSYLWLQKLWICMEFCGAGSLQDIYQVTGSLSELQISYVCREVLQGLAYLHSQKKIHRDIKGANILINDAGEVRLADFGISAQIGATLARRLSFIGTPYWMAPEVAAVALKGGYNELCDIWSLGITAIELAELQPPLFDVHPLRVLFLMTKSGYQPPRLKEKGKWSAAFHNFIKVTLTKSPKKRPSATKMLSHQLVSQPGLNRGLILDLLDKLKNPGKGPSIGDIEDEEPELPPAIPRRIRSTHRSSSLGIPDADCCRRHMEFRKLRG

In turn, `CNC1CCCc2c1ccc(F)c2-c1cc2c(-c3ccc(N4CCN(C)CC4)nc3)n[nH]c2cn1` (stereo not shown) [Example 240, 6-Fluoro-N-methyl-5-(3-(6-(4-methylpiperazin-1-yl)pyridin-3-yl)-1H-pyrazolo[3,4-c]pyridin-5-yl)-1,2,3,4-tetrahydronaphthalen-1-amine] gave a Ki not above 100 nM.

`COc1cccc(F)c1-c1cc2c(-c3cccc(C4CCN(C)CC4)n3)n[nH]c2cn1` [Example 115, 5-(2-Fluoro-6-methoxyphenyl)-3-(6-(1-methylpiperidin-4-yl)pyridin-2-yl)-1H-pyrazolo[3,4-c]pyridine]: the Ki was not above 100 nM.

Compound `COc1cccc(F)c1-c1cc2c(NC(=O)c3cccc(C#N)c3)n[nH]c2cn1` [Example 7, 3-Cyano-N-(5-(2-fluoro-6-methoxyphenyl)-1H-pyrazolo[3,4-c]pyridin-3-yl)benzamide] gave a Ki not above 100 nM.

For `CN1CCN(c2ccc(-c3n[nH]c4cnc(-c5c(F)cc6c(c5F)CCCC6N)cc34)cn2)CC1` (stereo not shown) [Example 203, 5,7-Difluoro-6-(3-(6-(4-methylpiperazin-1-yl)pyridin-3-yl)-1H-pyrazolo[3,4-c]pyridin-5-yl)-1,2,3,4-tetrahydronaphthalen-1-amine], the Ki was not above 100 nM.

In the case of `CNC(=O)c1ccc(-c2n[nH]c3cnc(-c4c(C)cc(C5CCCN5)cc4F)cc23)cc1` (stereo not shown) [Example 170, 4-(5-(2-Fluoro-6-methyl-4-(pyrrolidin-2-yl)phenyl)-1H-pyrazolo[3,4-c]pyridin-3-yl)-N-methylbenzamide], the Ki is not above 100 nM.

Take `COCCNC(=O)Nc1cc(F)c(-c2cc3c(-c4cnn(C)c4)n[nH]c3cn2)c(F)c1` [Example 71, 1-(3,5-Difluoro-4-(3-(1-methyl-1H-pyrazol-4-yl)-1H-pyrazolo[3,4-c]pyridin-5-yl)phenyl)-3-(2-methoxyethyl)urea]: the Ki was not above 100 nM.

In the case of `COC1CN(Cc2cc(F)c(-c3cc4c(NC(=O)c5ccc(N6CCN(C)CC6)cc5)n[nH]c4cn3)c(F)c2)C1` [Example 143, N-(5-(2,6-Difluoro-4-((3-methoxyazetidin-1-yl)methyl)phenyl)-1H-pyrazolo[3,4-c]pyridin-3-yl)-4-(4-methylpiperazin-1-yl)benzamide], the Ki is not above 100 nM.

Regarding `Cn1cc(-c2n[nH]c3cnc(-c4c(F)ccc5c4CCCC5N)cc23)cn1` (stereo not shown) [Example 210, 6-Fluoro-5-(3-(1-methyl-1H-pyrazol-4-yl)-1H-pyrazolo[3,4-c]pyridin-5-yl)-1,2,3,4-tetrahydronaphthalen-1-amine], the Ki is not above 100 nM.

As to `CN1CCN(c2ccc(C(=O)Nc3n[nH]c4cnc(-c5c(F)cc(NC(=O)CN6CCCC6)cc5F)cc34)cc2)CC1` [Example 156, N-(5-(2,6-Difluoro-4-(2-(pyrrolidin-1-yl)acetamido)phenyl)-1H-pyrazolo[3,4-c]pyridin-3-yl)-4-(4-methylpiperazin-1-yl)benzamide], the Ki is not above 100 nM.

`COc1cccc(F)c1-c1cc2c(NC(=O)c3ccc(F)c(F)c3)n[nH]c2cn1` [Example 12, 3,4-Difluoro-N-(5-(2-fluoro-6-methoxyphenyl)-1H-pyrazolo[3,4-c]pyridin-3-yl)benzamide] registered a Ki not above 100 nM.

For the compound `COC1CCCN(Cc2ccc(F)c(-c3cc4c(-c5cnn(C)c5)n[nH]c4cn3)c2F)C1` (stereo not shown) [Example 130, 5-(2,6-Difluoro-3-((3-methoxypiperidin-1-yl)methyl)phenyl)-3-(1-methyl-1H-pyrazol-4-yl)-1H-pyrazolo[3,4-c]pyridine], the Ki was not above 100 nM.

Regarding `CNC1CCc2c1cc(F)c(-c1cc3c(-c4ccc(N5CCN(C)CC5)cc4)n[nH]c3cn1)c2F` (stereo not shown) [Example 197, 4,6-Difluoro-N-methyl-5-(3-(4-(4-methylpiperazin-1-yl)phenyl)-1H-pyrazolo[3,4-c]pyridin-5-yl)-2,3-dihydro-1H-inden-1-amine], the Ki is not above 100 nM.

`COC1CN(Cc2cc(C)c(-c3cc4c(-c5cnn(C)c5)n[nH]c4cn3)c(F)c2)C1` [Example 185, 5-(2-Fluoro-4-((3-methoxyazetidin-1-yl)methyl)-6-methylphenyl)-3-(1-methyl-1H-pyrazol-4-yl)-1H-pyrazolo[3,4-c]pyridine] came in with a Ki not above 100 nM.

`COc1cccc(F)c1-c1cc2c(NC(=O)c3ccc(N4CCN(C)C(=O)C4)cc3)n[nH]c2cn1` [Example 27, N-(5-(2-fluoro-6-methoxyphenyl)-1H-pyrazolo[3,4-c]pyridin-3-yl)-4-(4-methyl-3-oxopiperazin-1-yl)benzamide] registered a Ki not above 100 nM.

Turning to `CNCc1cc(F)c(-c2ncc3[nH]nc(-c4cnn(C)c4)c3c2OC)c(F)c1` [Example 215, 1-(3,5-Difluoro-4-(4-methoxy-3-(1-methyl-1H-pyrazol-4-yl)-1H-pyrazolo[3,4-c]pyridin-5-yl)phenyl)-N-methylmethanamine], the inhibition constant Ki is not above 100 nM.

Compound `CN(C)c1ccc(F)c(-c2cc3c(-c4cnn(C)c4)n[nH]c3cn2)c1F` [Example 62, 2,4-Difluoro-N,N-dimethyl-3-(3-(1-methyl-1H-pyrazol-4-yl)-1H-pyrazolo[3,4-c]pyridin-5-yl)aniline] showed a Ki not above 100 nM.

In turn, `CNC1(c2cc(F)c(-c3cc4c(-c5cnn(C)c5)n[nH]c4cn3)c(F)c2)CC1` [Example 137, 1-(3,5-Difluoro-4-(3-(1-methyl-1H-pyrazol-4-yl)-1H-pyrazolo[3,4-c]pyridin-5-yl)phenyl)-N-methylcyclopropanamine] returned a Ki not above 100 nM.

`COC(=O)NCc1cc(C)c(-c2cc3c(-c4cnn(C)c4)n[nH]c3cn2)c(F)c1` [Example 192, Methyl 3-fluoro-5-methyl-4-(3-(1-methyl-1H-pyrazol-4-yl)-1H-pyrazolo[3,4-c]pyridin-5-yl)benzylcarbamate] gave an inhibition constant Ki not above 100 nM.

Compound `CNCc1ccc(F)c(-c2cc3c(-c4cnn(C)c4)n[nH]c3cn2)c1OC` [Example 138, 1-(4-Fluoro-2-methoxy-3-(3-(1-methyl-1H-pyrazol-4-yl)-1H-pyrazolo[3,4-c]pyridin-5-yl)phenyl)-N-methylmethanamine] displayed a Ki not above 100 nM.

With `CNCc1cc(F)c(-c2cc3c(-c4ccc(N5CCN(C)CC5)cc4)n[nH]c3cn2)c(C(F)(F)F)c1` [Example 132, 1-(3-Fluoro-4-(3-(4-(4-methylpiperazin-1-yl)phenyl)-1H-pyrazolo[3,4-c]pyridin-5-yl)-5-(trifluoromethyl)phenyl)-N-methylmethanamine], the Ki was not above 100 nM.

Take `Cc1cccc(F)c1-c1cc2c(-c3ccc(N4CCN(C)CC4)cc3)n[nH]c2cn1` [Example 49, 5-(2-Fluoro-6-methylphenyl)-3-(4-(4-methylpiperazin-1-yl)phenyl)-1H-pyrazolo[3,4-c]pyridine]: the Ki was not above 100 nM.

Turning to `Cn1cc(-c2n[nH]c3cnc(-c4c(F)cc(NC(=O)CC5CCCC5)cc4F)cc23)cn1` [Example 66, 2-Cyclopentyl-N-(3,5-difluoro-4-(3-(1-methyl-1H-pyrazol-4-yl)-1H-pyrazolo[3,4-c]pyridin-5-yl)phenyl)acetamide], the Ki was not above 100 nM.

The compound `Cn1cc(-c2n[nH]c3cnc(-c4c(F)ccc(CNC5CC5)c4F)cc23)cn1` [Example 129, N-(2,4-Difluoro-3-(3-(1-methyl-1H-pyrazol-4-yl)-1H-pyrazolo[3,4-c]pyridin-5-yl)benzyl)cyclo propanamine] registered a Ki not above 100 nM.

The compound `COc1c(-c2cc3c(-c4ccc(N5CCN(C)CC5)cc4)n[nH]c3cn2)c(F)cc2c1C(N)CC2` (stereo not shown) [Example 206, 5-Fluoro-7-methoxy-6-(3-(4-(4-methylpiperazin-1-yl)phenyl)-1H-pyrazolo[3,4-c]pyridin-5-yl)-2,3-dihydro-1H-inden-1-amine] had an inhibition constant Ki not above 100 nM.

On to `CCn1cc(-c2n[nH]c3cnc(-c4c(C)cc(C5CCCCN5)cc4F)cc23)cn1` (single isomer, unassigned) [Example 231, 3-(1-Ethyl-1H-pyrazol-4-yl)-5-(2-fluoro-6-methyl-4-(piperidin-2-yl)phenyl)-1H-pyrazolo[3,4-c]pyridine], for which the inhibition constant Ki is not above 100 nM.

Take `CNC1CCc2c1cc(C)c(-c1cc3c(-c4cnn(C)c4)n[nH]c3cn1)c2F` (single isomer, unassigned) [Example 238, 4-Fluoro-N,6-dimethyl-5-(3-(1-methyl-1H-pyrazol-4-yl)-1H-pyrazolo[3,4-c]pyridin-5-yl)-2,3-dihydro-1H-inden-1-amine]: the Ki was not above 100 nM.

Take `CNCc1cc(F)c(-c2cc3c(-c4cnn(-c5ccccc5C#N)c4)n[nH]c3cn2)c(F)c1` [Example 161, 2-(4-(5-(2,6-Difluoro-4-((methylamino)methyl)phenyl)-1H-pyrazolo[3,4-c]pyridin-3-yl)-1H-pyrazol-1-yl)benzonitrile]: the Ki was not above 100 nM.

Regarding `CCNCc1cc(F)c(-c2cc3c(NC(=O)c4ccc(N5CCN(C)CC5)cc4)n[nH]c3cn2)c(C(F)(F)F)c1` [Example 154, N-(5-(4-((Ethylamino)methyl)-2-fluoro-6-(trifluoromethyl)phenyl)-1H-pyrazolo[3,4-c]pyridin-3-yl)-4-(4-methylpiperazin-1-yl)benzamide], the Ki was not above 100 nM.

Compound `Cn1cc(-c2n[nH]c3cnc(-c4c(F)ccc(NC(=O)Cc5ccccc5)c4F)cc23)cn1` [Example 60, N-(2,4-Difluoro-3-(3-(1-methyl-1H-pyrazol-4-yl)-1H-pyrazolo[3,4-c]pyridin-5-yl)phenyl)-2-phenylacetamide] yielded an inhibition constant (Ki) not above 100 nM.

`CN1CCN(c2ccc(-c3n[nH]c4cnc(-c5c(F)cccc5C(F)(F)F)cc34)cc2)CC1` [Example 53, 5-(2-Fluoro-6-(trifluoromethyl)phenyl)-3-(4-(4-methylpiperazin-1-yl)phenyl)-1H-pyrazolo[3,4-c]pyridine] came in with a Ki not above 100 nM.

In turn, `CNC1CCc2cc(F)c(-c3ncc4[nH]nc(-c5cnn(C)c5)c4c3OC)c(F)c2C1` (stereo not shown) [Example 214, 6,8-Difluoro-7-(4-methoxy-3-(1-methyl-1H-pyrazol-4-yl)-1H-pyrazolo[3,4-c]pyridin-5-yl)-N-methyl-1,2,3,4-tetrahydronaphthalen-2-amine] registered an inhibition constant (Ki) not above 100 nM.

These data come from patent US10435405B2, “Pyrazolopyridine compounds and uses thereof” (Incyte Corporation, priority 2016, dated 2019).
